Broadly, the IC50 is the midpoint of a concentration-inhibition curve.

This passage reports Ki and IC50 results from US8637511B2, “Aminopyrimidines useful as kinase inhibitors” (Vertex Pharmaceuticals Incorporated, priority 2005, dated 2014).

One assay has as its target T1, human Itk kinase (Homo sapiens, UniProt Q08881).
T1 sequence (Q08881 1-620): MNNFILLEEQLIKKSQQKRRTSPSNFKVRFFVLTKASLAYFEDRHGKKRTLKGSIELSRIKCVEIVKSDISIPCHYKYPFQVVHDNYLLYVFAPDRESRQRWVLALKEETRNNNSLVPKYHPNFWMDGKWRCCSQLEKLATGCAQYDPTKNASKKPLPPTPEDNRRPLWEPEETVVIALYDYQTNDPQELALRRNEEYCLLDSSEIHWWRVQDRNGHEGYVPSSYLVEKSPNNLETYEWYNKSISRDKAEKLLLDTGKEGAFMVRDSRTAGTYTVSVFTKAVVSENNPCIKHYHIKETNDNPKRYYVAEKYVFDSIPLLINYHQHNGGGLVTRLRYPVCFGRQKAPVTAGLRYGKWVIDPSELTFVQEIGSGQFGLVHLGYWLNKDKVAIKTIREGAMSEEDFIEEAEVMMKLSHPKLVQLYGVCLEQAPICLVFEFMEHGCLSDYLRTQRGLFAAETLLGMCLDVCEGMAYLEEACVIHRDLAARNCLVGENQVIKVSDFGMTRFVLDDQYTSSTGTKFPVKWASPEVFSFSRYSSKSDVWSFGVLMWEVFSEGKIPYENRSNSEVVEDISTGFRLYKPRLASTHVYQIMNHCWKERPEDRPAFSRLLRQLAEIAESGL
Briefly: Itk inhibition assay: radioactivity-based assay. As to conditions: Ki(app). The format is biochemical. Here is the method:
The compounds of the present invention were evaluated as inhibitors of human Itk kinase using a radioactivity-based assay. These compounds can also be evaluated using a spectrophotometric or alphascreen assay.
Assays were carried out in a mixture of 20 mM MOPS (pH 7.0), 10 mM MgCl2, 0.1% BSA and 1 mM DTT. Final substrate concentrations in the assay were 7.5 μM [γ-^33P]ATP (400 μCi ^33P ATP/μmol ATP, Amersham Pharmacia Biotech/Sigma Chemicals) and 3 μM peptide (SAM68 protein Δ332-443). Assays were carried out at 25° C. in the presence of 50 nM Itk. An assay stock buffer solution was prepared containing all of the reagents listed above, with the exception of ATP and the test compound of interest. 50 μL of the stock solution was placed in a 96 well plate followed by addition of 2 μL of DMSO stock containing serial dilutions of the test compound (typically starting from a final concentration of 50 μM with 2-fold serial dilutions) in duplicate (final DMSO concentration 2%). The plate was pre-incubated for 10 minutes at 25° C. and the reaction initiated by addition of 50 μL [γ-^33P]ATP (final concentration 7.5 μM).
The reaction was stopped after 10 minutes by the addition of 100 μL 0.2M phosphoric acid+0.01% TWEEN 20. A multiscreen phosphocellulose filter 96-well plate (Millipore, Cat no. MAPHNOB50) was pretreated with 100 μL 0.2M phosphoric acid+0.01% TWEEN 20 prior to the addition of 170 μL of the stopped assay mixture. The plate was washed with 4×200 μL 0.2M phosphoric acid+0.01% TWEEN 20. After drying, 30 μL Optiphase ‘SuperMix’ liquid scintillation cocktail (Perkin Elmer) was added to the well prior to scintillation counting (1450 Microbeta Liquid Scintillation Counter, Wallac).
Ki(app) data were calculated from non-linear regression analysis of the initial rate data using the Prism software package (GraphPad Prism version 3.0cx for Macintosh, GraphPad Software, San Diego Calif., USA).

The next assay addresses T2, JAK3 (Homo sapiens, UniProt P52333).
T2 sequence (P52333 1-1124): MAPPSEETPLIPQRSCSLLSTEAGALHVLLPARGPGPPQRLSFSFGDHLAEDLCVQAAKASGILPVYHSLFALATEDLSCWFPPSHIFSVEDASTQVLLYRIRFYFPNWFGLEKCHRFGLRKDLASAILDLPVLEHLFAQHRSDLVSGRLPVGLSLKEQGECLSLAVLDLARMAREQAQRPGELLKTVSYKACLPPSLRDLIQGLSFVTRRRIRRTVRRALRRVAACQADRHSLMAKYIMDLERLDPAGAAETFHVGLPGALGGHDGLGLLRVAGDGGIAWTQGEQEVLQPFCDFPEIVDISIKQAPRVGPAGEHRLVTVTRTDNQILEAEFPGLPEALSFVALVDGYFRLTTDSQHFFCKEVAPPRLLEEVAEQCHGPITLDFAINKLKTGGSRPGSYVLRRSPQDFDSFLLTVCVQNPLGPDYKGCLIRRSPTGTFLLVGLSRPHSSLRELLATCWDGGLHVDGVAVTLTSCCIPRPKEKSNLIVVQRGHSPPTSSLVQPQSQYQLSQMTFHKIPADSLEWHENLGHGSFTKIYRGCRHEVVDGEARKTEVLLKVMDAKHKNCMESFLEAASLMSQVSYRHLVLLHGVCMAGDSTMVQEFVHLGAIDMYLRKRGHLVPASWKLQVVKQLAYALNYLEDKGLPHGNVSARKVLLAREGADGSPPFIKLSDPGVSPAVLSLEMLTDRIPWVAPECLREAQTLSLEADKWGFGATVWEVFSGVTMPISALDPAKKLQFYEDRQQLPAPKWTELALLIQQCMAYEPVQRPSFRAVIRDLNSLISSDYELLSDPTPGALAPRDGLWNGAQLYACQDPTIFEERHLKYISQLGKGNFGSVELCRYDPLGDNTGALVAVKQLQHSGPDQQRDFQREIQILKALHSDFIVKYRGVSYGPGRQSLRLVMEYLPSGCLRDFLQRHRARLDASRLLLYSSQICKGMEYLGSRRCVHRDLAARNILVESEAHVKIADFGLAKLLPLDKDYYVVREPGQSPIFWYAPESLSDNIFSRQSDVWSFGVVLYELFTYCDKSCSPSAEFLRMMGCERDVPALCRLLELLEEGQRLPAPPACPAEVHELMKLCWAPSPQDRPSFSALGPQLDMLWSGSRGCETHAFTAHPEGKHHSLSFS
Briefly: biochemical.

A further assay relates to Colo205 cells. The experiment in a line: Analysis of cell proliferation and viability. Type of assay: cell-based. As to conditions: Homo sapiens, read-out: IC50 value.
In the next assay the target is Aurora-1 (Aurora B) (Homo sapiens, UniProt Q96GD4). Briefly: Aurora-1 (Aurora B) inhibition assay (radiometric). Type of assay: biochemical. As to conditions: read-out: Aurora B kinase Ki value. In short, it runs like this:
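Radiometric ^33P incorporation into peptide substrate, with [γ-^33P]-ATP at 800 μM final, in 25 mM HEPES pH 7.5, 10 mM MgCl2, 0.1% BSA, 10% glycerol. Compound preincubated with enzyme for 10 min at 25° C, reaction run 3 h, then captured on phosphocellulose. Ki from initial rates by non-linear regression after background subtraction.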

Another assay has as its target T3, Aurora-2 (Aurora A) (Homo sapiens, UniProt O14965).
T3 sequence (O14965 1-403): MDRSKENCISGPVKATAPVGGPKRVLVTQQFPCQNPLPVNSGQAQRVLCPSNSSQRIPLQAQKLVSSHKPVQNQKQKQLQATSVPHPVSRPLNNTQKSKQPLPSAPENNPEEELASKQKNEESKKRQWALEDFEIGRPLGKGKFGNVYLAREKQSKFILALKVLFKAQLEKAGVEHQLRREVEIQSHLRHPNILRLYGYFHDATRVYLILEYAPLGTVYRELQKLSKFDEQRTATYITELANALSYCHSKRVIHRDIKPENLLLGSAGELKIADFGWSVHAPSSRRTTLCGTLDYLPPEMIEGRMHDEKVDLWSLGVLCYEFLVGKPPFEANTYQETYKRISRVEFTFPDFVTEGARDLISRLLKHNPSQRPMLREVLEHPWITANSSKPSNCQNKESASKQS
The experiment in a line: Aurora-2 (Aurora A) inhibition assay, coupled enzyme. Type of assay: biochemical. The conditions noted are these: read-out: Aurora A kinase Ki value. In short, it runs like this:
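Coupled pyruvate kinase/lactate dehydrogenase assay with NADH in pH 7.5 Hepes containing MgCl2, DTT and NaCl, using 40 nM Aurora-2 at 30 °C. After a 10 min preincubation, enzyme addition started the reaction, and initial rates were taken over 10 min. IC50 and Ki came from non-linear regression.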

Where [1] appears, read: COLO 205, Colo205 cells, incubated for 96 hours.

Like-named read-outs stand apart in the source and are kept apart here.

Aurora-1 (Aurora B), sequence (Q96GD4 whole entry): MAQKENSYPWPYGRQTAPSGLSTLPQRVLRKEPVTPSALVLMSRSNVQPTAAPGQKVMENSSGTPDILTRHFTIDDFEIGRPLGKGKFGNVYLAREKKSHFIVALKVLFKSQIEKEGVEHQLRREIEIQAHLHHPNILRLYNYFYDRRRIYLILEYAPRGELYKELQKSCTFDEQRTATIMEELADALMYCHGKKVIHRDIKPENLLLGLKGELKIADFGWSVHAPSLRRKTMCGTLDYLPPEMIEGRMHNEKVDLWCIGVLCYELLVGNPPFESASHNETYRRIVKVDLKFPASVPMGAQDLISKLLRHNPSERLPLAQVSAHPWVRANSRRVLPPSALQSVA
Protocol for JAK3: Reactions were carried out in a kinase buffer containing 100 mM HEPES (pH 7.4), 1 mM DTT, 10 mM MgCl2, 25 mM NaCl, and 0.01% BSA. Substrate concentrations in the assay were 5 μM ATP (200 uCi/μmole ATP) and 1 μM poly(Glu)4Tyr. Reactions were carried out at 25° C. and 1 nM JAK3.
To each well of a 96 well polycarbonate plate was added 1.5 μl of a candidate JAK3 inhibitor along with 50 μl of kinase buffer containing 2 μM poly(Glu)4Tyr and 10 μM ATP. This was then mixed and 50 μl of kinase buffer containing 2 nM JAK3 enzyme was added to start the reaction. After 20 minutes at room temperature (25 C), the reaction was stopped with 50 μl of 20% trichloroacetic acid (TCA) that also contained 0.4 mM ATP. The entire contents of each well were then transferred to a 96 well glass fiber filter plate using a TomTek Cell Harvester. After washing, 60 μl of scintillation fluid was added and ^33P incorporation detected on a Perkin Elmer TopCount.

With `Cc1cc(Nc2cc(N3CCC3)nc(Sc3ccc(NC(=O)c4cccc(C)c4Cl)cc3)n2)n[nH]1` [Compound 161], the results for the Ki on human Itk kinase and on JAK3 (read-out: JAK3 Ki value) were 100 to 1000 nM and ≤ 10 nM, respectively. In the assay with Colo205 cells (setting [1]), the concentration for half-maximal inhibition (IC50) fell in the range of 50 to 1000 nM.

With `Cc1cc(Nc2cc(N3CCC3)nc(Sc3ccc(NC(=O)c4ccccc4F)cc3)n2)n[nH]1` [Compound 9], the Ki on Aurora-1 (Aurora B) is ≤ 10 nM; on human Itk kinase, 100 to 1000 nM. Moreover, the IC50 in the assay on Colo205 cells (setting [1]) lay within 50 to 1000 nM.

Take `O=C(Nc1ccc(Sc2nc(Nc3cc(CO)[nH]n3)cc(N3CCC3)n2)cc1)c1ccccc1Cl` [Compound 75]: the figures for the Ki on Aurora-2 (Aurora A), on Aurora-1 (Aurora B) and on human Itk kinase were 5 to 200 nM, 50 to 2000 nM and 1000 to 2000 nM, respectively.

On to `Cc1cc(Nc2cc(N3CCC3)nc(Sc3ccc(NC(=O)c4cccc(F)c4F)cc3)n2)n[nH]1` [Compound 33], for which the Ki at Aurora-2 (Aurora A) fell in the range of 1 to 5 nM; on human Itk kinase, 100 to 1000 nM. Further, in the assay with Colo205 cells (COLO 205, 96 h), the IC50 was in the range of 50 to 1000 nM.

Consider `O=C(Nc1ccc(Sc2nc(Nc3cc(C4CC4)[nH]n3)cc(N3CCC3)n2)cc1)c1ccccc1Cl` [Compound 65], for which the Ki on human Itk kinase was ≤ 100 nM; on JAK3 (read-out: JAK3 Ki value), ≤ 10 nM. Further, the IC50 in the assay on Colo205 cells (setting [1]) lay within 50 to 1000 nM.

For the compound `Cc1cc(Nc2cc(N3CCC3)nc(Sc3ccc(NC(=O)c4c(Cl)cccc4Cl)cc3)n2)n[nH]1` [Compound 46], the Ki at human Itk kinase was ≤ 100 nM. Besides, the 50% inhibitory concentration (IC50) in the assay on Colo205 cells (COLO 205, 96 h) lay in the range of 50 to 1000 nM.

On to `Cc1cc(Nc2cc(N3CCC3)nc(Sc3ccc(NC(=O)c4ccccc4OC(F)(F)F)cc3)n2)n[nH]1` [Compound 34], for which, at human Itk kinase, the Ki lay within 100 to 1000 nM. In the assay on Colo205 cells (COLO 205, 96 h), the IC50 was 50 to 1000 nM.

On to `COc1ccccc1C(=O)Nc1ccc(Sc2nc(Nc3cc(C)[nH]n3)cc(N3CCC3)n2)cc1` [Compound 32], for which the Ki on human Itk kinase lay within 100 to 1000 nM. In addition, the half-inhibitory concentration (IC50) in the assay with Colo205 cells (COLO 205, 96 h) lay within 50 to 1000 nM.

For `CCc1cccc(C(=O)Nc2ccc(Sc3nc(Nc4cc(C)[nH]n4)cc(N4CCC4)n3)cc2)c1Cl` [Compound 164], the figures for the Ki at human Itk kinase and on JAK3 were 100 to 1000 nM and ≤ 10 nM, respectively. Also, in the assay on Colo205 cells (setting [1]), the half-inhibitory concentration (IC50) was ≤ 50 nM.

Turning to `Cc1cccc(C(=O)Nc2ccc(Sc3nc(Nc4cc(C)[nH]n4)cc(N4CCC4)n3)cc2)c1` [Compound 29], at human Itk kinase, the Ki is 100 to 1000 nM. For the same compound, in the assay on Colo205 cells (COLO 205, 96 h), the IC50 lay in the range of 50 to 1000 nM.

For the compound `Cc1cc(Nc2cc(N3CCC3)nc(Sc3ccc(NC(=O)c4ccccc4C)cc3)n2)n[nH]1` [Compound 31], the Ki at human Itk kinase was 100 to 1000 nM. Besides, the IC50 with Colo205 cells (COLO 205, 96 h) lay within 50 to 1000 nM.
